# Measured values as given in publication PMC12138978, “Mu Opioid Receptor Positive Allosteric Modulator BMS-986122 Confers Agonist-Dependent G Protein Subtype Signaling Bias” (Biochemistry, 2025).
# Where “and” joins values, the source holds several entries; their conditions need not be identical. Equal entries are not always repeated. Where two headings read alike, the source gives them in different places.
# Columns and labels:
# [1] = molecular target: T1, human MOR signaling through Gαi3-oBct (Homo sapiens, UniProt P35372); assay: nanoBRET assay, MOR signaling through Gαi3-oBct chimera (C-terminus of GαoB); assay type: cell-based; details: orthosteric agonist 7-hydroxymitragynine, read-out: KB (affinity of BMS-986122)
# T1 construct: host or cells: HEK 293T, transient
# Description: (§1) Human embryonic kidney (HEK) 293T cells (ATCC, Manassas, VA) maintained and transfected as described in previous work, with some modifications. Cells were cultured on 0.01% poly-L-lysine (Millipore Sigma, Darmstadt, Germany)-coated 10 cm dishes in Dulbecco’s modified Eagle medium (GIBCO, Grand Island, NY) supplemented with 5% fetal bovine serum, 1% nonessential amino acids, 1 mM sodium pyruvate, and 100 U/mL penicillin/streptomycin, maintained in an incubator at 37 °C in a 5% CO2 atmosphere. Prior to transfection, 3.0 × 10^6 cells were reseeded onto Matrigel-coated (Corning, Inc., Corning NY) 6 cm dishes and incubated for 4 h at 37 °C and 5% CO2. […]
# (§2) BRET measurements between mVenus-Gβ1γ2 and masGRK3ct-nLuc for nanoBRET, and Gγ-GFP2 and Gα-rLuc8 for TruPATH, were performed to determine agonist-dependent activation of each Gα protein of interest in the presence and absence of BMS-986122, in live HEK 293T cells. […] For TruPATH, cells were incubated for 30 min at 25 °C prior to luminescence emissions being read at 515 and 410 nm. […]
# (§3) This form of the operational model was selected because all parameters are constrained by default to be equal for each data set except for τ, which had no constraints. […] Statistical significance between Δlog(τ) values for each Gα subunit were calculated via one-way ANOVA with Tukey’s posthoc analysis. […]
# [2] = tested on: MOR; design: method as in Burford et al.; details: endomorphin-1 as orthosteric agonist, allosteric ternary complex model; ref Burford et al.; cited from earlier work
# [3] = molecular target: T2, human MOR signaling through GαoB (Homo sapiens, UniProt P35372); assay type: cell-based; details: for Kb: read-out: KB (affinity of BMS-986122)
# T2 construct: host or cells: HEK 293T, transient
# [4] = molecular target: T3, human MOR signaling through Gαi3^K349R, E350G mutant (Homo sapiens, UniProt P35372); assay: nanoBRET assay, MOR signaling through mutant Gαi3 K349R, E350G; assay type: cell-based; details: orthosteric agonist 7-hydroxymitragynine, read-out: KB (affinity of BMS-986122)
# T3 construct: host or cells: HEK 293T, transient
# Description: as §1, §2, §3
# [5] = molecular target: T4, human MOR signaling through Gαz (Homo sapiens, UniProt P35372); assay type: cell-based; details: Gαz, up to 10 μM, absence of any orthosteric agonist, no RGS20
# T4 construct: host or cells: HEK 293T, transient
# [6] = molecular target: T5, human MOR signaling through Gαi2 (Homo sapiens, UniProt P35372); assay type: cell-based; details: for Kb: read-out: KB (affinity of BMS-986122)
# T5 construct: host or cells: HEK 293T, transient
# [7] = molecular target: T6, human MOR signaling through Gαi3 (Homo sapiens, UniProt P35372); assay type: cell-based
# T6 construct: host or cells: HEK 293T, transient
# [8] = tested on: human MOR signaling through different Gα subunits; assay: nanoBRET assay, comparison or average across Gα subunits; assay type: cell-based; details: 7-hydroxymitragnine as agonist, 10 μM PAM, relative transduction coefficients compared between Gαi3 and GαoB
# [9] = molecular target: T7, human MOR signaling through Gαi1 (Homo sapiens, UniProt P35372); assay type: cell-based
# T7 construct: host or cells: HEK 293T, transient
# [10] = molecular target: T8, human MOR signaling through Gαz with RGS20 (Homo sapiens, UniProt P35372); assay: nanoBRET assay, MOR signaling through Gαz with RGS20 (RGSz1) coexpression; assay type: cell-based; details: RGS20 (RGSz1) co-expressed
# T8 construct: host or cells: HEK 293T, transient
# [11] = molecular target: T9, human MOR signaling through GαoA (Homo sapiens, UniProt P35372); assay type: cell-based
# T9 construct: host or cells: HEK 293T, transient
# [12] = molecular target: T10, human MOR signaling through Gαi2^N346 K mutant (Homo sapiens, UniProt P35372); assay: nanoBRET assay, MOR signaling through mutant Gαi2 N346K; assay type: cell-based; details: orthosteric agonist 7-hydroxymitragynine, read-out: KB (affinity of BMS-986122)
# T10 construct: host or cells: HEK 293T, transient
# Description: as §1, §2, §3
# T9 sequence (P35372 whole entry): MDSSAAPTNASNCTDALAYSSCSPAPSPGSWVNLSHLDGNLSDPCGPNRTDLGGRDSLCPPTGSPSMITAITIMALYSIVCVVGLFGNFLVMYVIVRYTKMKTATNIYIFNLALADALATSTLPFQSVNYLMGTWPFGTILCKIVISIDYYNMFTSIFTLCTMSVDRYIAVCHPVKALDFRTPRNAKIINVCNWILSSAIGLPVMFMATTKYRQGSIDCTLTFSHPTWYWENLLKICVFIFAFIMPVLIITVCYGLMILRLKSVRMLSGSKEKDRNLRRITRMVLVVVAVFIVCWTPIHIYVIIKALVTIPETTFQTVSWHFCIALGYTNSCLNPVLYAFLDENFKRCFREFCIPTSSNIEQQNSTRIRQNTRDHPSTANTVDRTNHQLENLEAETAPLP
# T9 sequence (P09471 2-354 partner limits assumed): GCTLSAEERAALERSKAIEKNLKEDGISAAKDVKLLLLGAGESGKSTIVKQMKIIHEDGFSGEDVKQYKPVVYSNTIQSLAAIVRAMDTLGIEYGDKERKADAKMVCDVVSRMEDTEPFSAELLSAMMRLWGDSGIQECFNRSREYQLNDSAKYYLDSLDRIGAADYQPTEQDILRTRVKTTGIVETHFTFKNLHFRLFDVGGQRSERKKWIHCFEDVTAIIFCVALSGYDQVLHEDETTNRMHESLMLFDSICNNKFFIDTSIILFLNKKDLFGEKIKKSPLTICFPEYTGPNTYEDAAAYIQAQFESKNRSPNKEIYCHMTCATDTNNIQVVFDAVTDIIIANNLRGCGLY
# T5 sequence (P35372 whole entry): as the sequence (P35372 whole entry) above
# T5 sequence (P04899 2-355 partner limits assumed): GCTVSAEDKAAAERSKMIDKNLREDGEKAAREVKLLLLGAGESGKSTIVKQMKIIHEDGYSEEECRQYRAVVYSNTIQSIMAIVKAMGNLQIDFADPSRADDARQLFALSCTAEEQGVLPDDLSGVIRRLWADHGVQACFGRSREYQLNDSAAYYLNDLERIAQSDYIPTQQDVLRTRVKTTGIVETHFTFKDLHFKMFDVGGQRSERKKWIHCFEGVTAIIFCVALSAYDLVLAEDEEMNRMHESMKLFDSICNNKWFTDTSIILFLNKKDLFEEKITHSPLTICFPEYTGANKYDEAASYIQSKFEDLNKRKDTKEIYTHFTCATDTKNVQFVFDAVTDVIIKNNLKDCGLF
# T6 sequence (P35372 whole entry): as the sequence (P35372 whole entry) above
# T6 sequence (P08754 2-354 partner limits assumed): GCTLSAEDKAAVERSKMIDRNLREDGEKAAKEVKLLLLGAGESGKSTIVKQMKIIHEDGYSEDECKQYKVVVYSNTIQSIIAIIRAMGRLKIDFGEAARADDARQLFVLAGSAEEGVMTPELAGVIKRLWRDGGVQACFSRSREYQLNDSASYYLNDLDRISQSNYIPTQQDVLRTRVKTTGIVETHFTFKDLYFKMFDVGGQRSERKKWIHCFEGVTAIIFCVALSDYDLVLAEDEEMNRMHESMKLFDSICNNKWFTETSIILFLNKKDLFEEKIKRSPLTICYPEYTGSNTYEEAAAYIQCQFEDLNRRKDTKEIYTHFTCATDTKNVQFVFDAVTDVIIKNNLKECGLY
# T7 sequence (P35372 whole entry): as the sequence (P35372 whole entry) above
# T7 sequence (P63096 2-354 partner limits assumed): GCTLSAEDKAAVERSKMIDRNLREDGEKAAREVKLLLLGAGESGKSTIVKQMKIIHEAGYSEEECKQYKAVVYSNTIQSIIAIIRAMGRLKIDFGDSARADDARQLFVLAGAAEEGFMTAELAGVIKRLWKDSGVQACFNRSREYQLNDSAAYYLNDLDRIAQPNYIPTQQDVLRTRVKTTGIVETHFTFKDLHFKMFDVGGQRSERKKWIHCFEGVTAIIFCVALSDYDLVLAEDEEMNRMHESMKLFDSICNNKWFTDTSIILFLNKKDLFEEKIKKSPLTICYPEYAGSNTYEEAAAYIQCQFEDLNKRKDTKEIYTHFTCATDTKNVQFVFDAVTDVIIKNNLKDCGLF
# T2 sequence (P35372 whole entry): as the sequence (P35372 whole entry) above
# T2 sequence (P09471 2-354 isoform P09471-2 partner limits assumed): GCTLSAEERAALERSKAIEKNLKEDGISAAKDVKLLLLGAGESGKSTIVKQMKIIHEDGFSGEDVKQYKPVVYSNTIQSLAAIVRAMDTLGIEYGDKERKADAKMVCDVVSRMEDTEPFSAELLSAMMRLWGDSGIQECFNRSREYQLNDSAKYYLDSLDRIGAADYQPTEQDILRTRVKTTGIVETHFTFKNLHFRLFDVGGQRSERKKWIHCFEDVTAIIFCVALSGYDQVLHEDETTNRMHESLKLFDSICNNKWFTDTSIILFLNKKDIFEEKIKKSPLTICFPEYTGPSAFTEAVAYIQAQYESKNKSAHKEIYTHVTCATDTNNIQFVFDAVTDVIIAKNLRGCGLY
# T10 sequence (P35372 whole entry, stated change not applied): as the sequence (P35372 whole entry) above
# T10 sequence (P04899 with tags, fused parts or gaps N347K partner): as the sequence (P04899 2-355 partner limits assumed) above, with N346K counted along it
# T4 sequence (P35372 whole entry): as the sequence (P35372 whole entry) above
# T4 sequence (P19086 2-355 partner limits assumed): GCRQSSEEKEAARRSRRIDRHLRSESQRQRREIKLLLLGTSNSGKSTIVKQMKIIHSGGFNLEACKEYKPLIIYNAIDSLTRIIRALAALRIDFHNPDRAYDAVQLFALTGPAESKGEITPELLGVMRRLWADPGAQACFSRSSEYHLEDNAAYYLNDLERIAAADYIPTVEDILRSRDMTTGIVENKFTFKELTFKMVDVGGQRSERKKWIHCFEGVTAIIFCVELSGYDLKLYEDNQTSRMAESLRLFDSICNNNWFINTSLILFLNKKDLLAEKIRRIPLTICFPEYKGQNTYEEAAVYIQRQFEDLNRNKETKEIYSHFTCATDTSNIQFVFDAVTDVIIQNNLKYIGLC
# T1 sequence (P35372 whole entry): as the sequence (P35372 whole entry) above
# T1 sequence (P08754 with tags, fused parts or gaps K345A/N346K/K349R/E350G partner limits assumed): as the sequence (P08754 2-354 partner limits assumed) above, with K344A, N345K, K348R, E349G counted along it
# T8 sequence (P35372 whole entry): as the sequence (P35372 whole entry) above
# T8 sequence (P19086 2-355 partner limits assumed): as the sequence (P19086 2-355 partner limits assumed) above
# T3 sequence (P35372 whole entry, stated change not applied): as the sequence (P35372 whole entry) above
# T3 sequence (P08754 with tags, fused parts or gaps K349R/E350G partner): as the sequence (P08754 2-354 partner limits assumed) above, with K348R, E349G counted along it
structure (smiles),measurement,setting,value
COc1ccc(C2SCCN2S(=O)(=O)c2ccc(Cl)cc2)cc1Br (stereo not drawn) [BMS-986122],Kb,[1],0.7 ± 0.06 µM
same,Affinity cooperativity factor α,[2],7.0
same,Kb,[2],5 µM
same,β (efficacy cooperativity factor of BMS-986122),[3],4.2 ± 0.8
same,Kb,"[3]; GαoB (WT), orthosteric agonist 7-Hydroxymitragynine",0.54 ± 0.1 µM
same,Hill coefficient of R50 curve,"[3]; GαoB, BMS-986122 titrated in presence of 10 μM 7-hydroxymitragynine",3.0
same,EC50,"[3]; GαoB, BMS-986122 titrated in presence of constant 10 μM 7-hydroxymitragynine, read-out: R50 (concentration of PAM which gives a half-maximal response)",0.67 ± 0.11 µM
same,β (efficacy cooperativity factor of BMS-986122),"[3]; GαoB, orthosteric agonist 7-Hydroxymitragynine, functional allosteric model",15 ± 4.2
same,Response of PAM alone (allosteric agonism),"[3]; GαoB, up to 10 μM, absence of any orthosteric agonist",no response
same,Kb,[3],0.62 ± 0.18 µM
same,Kb,[4],2.8 ± 0.4 µM
same,Emax of PAM alone (allosteric agonism),[5],21 ± 2%
same,α (affinity cooperativity factor of BMS-986122),[6],5.9 ± 0.6 and 3.2 ± 0.3
same,β (efficacy cooperativity factor of BMS-986122),[6],3.3 ± 0.3
same,Kb,"[6]; Gαi2 (WT), orthosteric agonist 7-Hydroxymitragynine",3.1 ± 0.7 µM
same,β (efficacy cooperativity factor of BMS-986122),"[6]; Gαi2, orthosteric agonist 7-Hydroxymitragynine, functional allosteric model",10 ± 2.8
same,Response of PAM alone (allosteric agonism),"[6]; Gαi2, up to 10 μM, absence of any orthosteric agonist",no response
same,Kb,[6],2.4 µM and 1.5 µM and 1.9 µM
same,Kb,"[7]; Gαi3 (WT), orthosteric agonist 7-Hydroxymitragynine, read-out: KB (affinity of BMS-986122)",2.3 ± 0.8 µM
same,β (efficacy cooperativity factor of BMS-986122),"[7]; Gαi3, orthosteric agonist 7-Hydroxymitragynine, functional allosteric model",5.9 ± 1.1
same,Response of PAM alone (allosteric agonism),"[7]; Gαi3, up to 10 μM, absence of any orthosteric agonist",no response
same,ΔΔlog(τ)oB-i3,[8],0.708
same,α (affinity cooperativity factor of BMS-986122),[9],5.0 ± 0.2 and 6.9 ± 0.9
same,β (efficacy cooperativity factor of BMS-986122),[9],10 ± 0.8
same,Response of PAM alone (allosteric agonism),"[9]; Gαi1, up to 10 μM, absence of any orthosteric agonist",no response
same,Kb,[9]; read-out: KB (affinity of BMS-986122),2.5 µM and 3.4 µM
same,Allosteric agonism of PAM alone with RGS20 co-expression,[10],effectively eliminate the allosteric agonism
same,α (affinity cooperativity factor of BMS-986122),[11],7.1 ± 1.0 and 4.3 ± 0.7
same,β (efficacy cooperativity factor of BMS-986122),[11],4.2 ± 0.3
same,β (efficacy cooperativity factor of BMS-986122),"[11]; GαoA, orthosteric agonist 7-Hydroxymitragynine, functional allosteric model",12 ± 1.8
same,Kb,"[11]; GαoA, orthosteric agonist 7-Hydroxymitragynine, read-out: KB (affinity of BMS-986122)",8 ± 0.2 µM
same,Response of PAM alone (allosteric agonism),"[11]; GαoA, up to 10 μM, absence of any orthosteric agonist",no response
same,Kb,[12],0.69 ± 0.06 µM
